Assay results: patent publication US11878975B2, “Substituted indole compounds useful as TLR inhibitors” (BRISTOL-MYERS SQUIBB COMPANY, priority 2017, dated 2024)

What was measured:
Type in all cases: cell-based
human TLR8 = target: T1, human TLR8 (Homo sapiens, UniProt Q9NR97); experiment: TLR8 inhibition reporter assay (HEK-Blue cells, SEAP reporter, R848 stimulation); conditions: HEK-Blue cells overexpressing human TLR8, SEAP reporter, R848 15.9 μM
T1 construct: host or cells: HEK-Blue cells
T1 sequence (Q9NR97 27-1041): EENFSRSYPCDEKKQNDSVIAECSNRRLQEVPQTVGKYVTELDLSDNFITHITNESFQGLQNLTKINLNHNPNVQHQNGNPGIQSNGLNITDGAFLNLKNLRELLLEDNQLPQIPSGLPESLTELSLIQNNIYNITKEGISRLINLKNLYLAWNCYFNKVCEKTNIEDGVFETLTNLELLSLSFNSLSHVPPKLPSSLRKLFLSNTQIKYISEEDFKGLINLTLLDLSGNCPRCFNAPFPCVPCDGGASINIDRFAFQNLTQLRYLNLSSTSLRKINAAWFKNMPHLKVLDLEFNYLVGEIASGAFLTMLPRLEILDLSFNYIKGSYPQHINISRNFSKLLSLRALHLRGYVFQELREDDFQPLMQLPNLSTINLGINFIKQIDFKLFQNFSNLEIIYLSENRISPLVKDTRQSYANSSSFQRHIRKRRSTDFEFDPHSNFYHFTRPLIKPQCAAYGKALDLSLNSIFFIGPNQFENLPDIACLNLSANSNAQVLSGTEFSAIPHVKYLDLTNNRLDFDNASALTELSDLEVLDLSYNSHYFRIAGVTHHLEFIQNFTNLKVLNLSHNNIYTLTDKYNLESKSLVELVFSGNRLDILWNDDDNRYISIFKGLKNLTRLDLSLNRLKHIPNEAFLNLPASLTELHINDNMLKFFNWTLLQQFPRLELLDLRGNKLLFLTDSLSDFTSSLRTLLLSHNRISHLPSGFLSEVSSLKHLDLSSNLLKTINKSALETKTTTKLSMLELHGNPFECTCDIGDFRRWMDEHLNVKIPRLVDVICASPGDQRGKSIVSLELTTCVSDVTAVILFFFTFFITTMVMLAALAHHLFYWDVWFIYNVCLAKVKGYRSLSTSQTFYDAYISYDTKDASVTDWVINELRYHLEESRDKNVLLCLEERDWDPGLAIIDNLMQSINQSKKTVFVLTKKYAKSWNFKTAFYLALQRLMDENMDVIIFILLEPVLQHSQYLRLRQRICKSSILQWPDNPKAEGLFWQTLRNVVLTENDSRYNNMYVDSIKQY
Method: (§1) TLR7/8/9 Inhibition Reporter Assays
(§2) HEK-Blue™-cells (Invivogen) overexpressing human TLR7, TLR8 or TLR9 receptors were used for screening inhibitors of these receptors using an inducible SEAP (secreted embryonic alkaline phosphatase) reporter gene under the control of the IFN-β minimal promoter fused to five NF-κB and AP-1-binding sites. Briefly, cells are seeded into Greiner 384 well plates (15000 cells per well for TLR7, 20,000 for TLR8 and 25,000 for TLR9) and then treated with test compounds in DMSO to yield a final dose response concentration range of 0.05 nM-50 μM. After a 30 minute compound pre-treatment al room temperature, the cells are then stimulated with a TLR7 ligand (gardiquimod at a final concentration of 7.5 μM), TLR8 ligand (R848 at a final concentration of 15.9 μM) or TLR9 ligand (ODN2006 at a final concentration of 5 nM) to activate NF-κB and AP-1 which induce the production of SEAP. After a 22 hour incubation at 37° C., 5% CO2, SEAP levels are determined with the addition of HEK-Blue™ Detection reagent (Invivogen), a cell culture medium that allows for detection of SEAP, according to manufacturer's specifications. The percent inhibition is determined as the % reduction in the HEK-Blue signal present in wells treated with agonist plus DMSO alone compared to wells treated with a known inhibitor.

human TLR7 = target: T2, human TLR7 (Homo sapiens, UniProt Q9NYK1); experiment: TLR7 inhibition reporter assay (HEK-Blue cells, SEAP reporter, gardiquimod stimulation); conditions: HEK-Blue cells overexpressing human TLR7, SEAP reporter, gardiquimod 7.5 μM
T2 construct: host or cells: HEK-Blue cells
T2 sequence (Q9NYK1 27-1049): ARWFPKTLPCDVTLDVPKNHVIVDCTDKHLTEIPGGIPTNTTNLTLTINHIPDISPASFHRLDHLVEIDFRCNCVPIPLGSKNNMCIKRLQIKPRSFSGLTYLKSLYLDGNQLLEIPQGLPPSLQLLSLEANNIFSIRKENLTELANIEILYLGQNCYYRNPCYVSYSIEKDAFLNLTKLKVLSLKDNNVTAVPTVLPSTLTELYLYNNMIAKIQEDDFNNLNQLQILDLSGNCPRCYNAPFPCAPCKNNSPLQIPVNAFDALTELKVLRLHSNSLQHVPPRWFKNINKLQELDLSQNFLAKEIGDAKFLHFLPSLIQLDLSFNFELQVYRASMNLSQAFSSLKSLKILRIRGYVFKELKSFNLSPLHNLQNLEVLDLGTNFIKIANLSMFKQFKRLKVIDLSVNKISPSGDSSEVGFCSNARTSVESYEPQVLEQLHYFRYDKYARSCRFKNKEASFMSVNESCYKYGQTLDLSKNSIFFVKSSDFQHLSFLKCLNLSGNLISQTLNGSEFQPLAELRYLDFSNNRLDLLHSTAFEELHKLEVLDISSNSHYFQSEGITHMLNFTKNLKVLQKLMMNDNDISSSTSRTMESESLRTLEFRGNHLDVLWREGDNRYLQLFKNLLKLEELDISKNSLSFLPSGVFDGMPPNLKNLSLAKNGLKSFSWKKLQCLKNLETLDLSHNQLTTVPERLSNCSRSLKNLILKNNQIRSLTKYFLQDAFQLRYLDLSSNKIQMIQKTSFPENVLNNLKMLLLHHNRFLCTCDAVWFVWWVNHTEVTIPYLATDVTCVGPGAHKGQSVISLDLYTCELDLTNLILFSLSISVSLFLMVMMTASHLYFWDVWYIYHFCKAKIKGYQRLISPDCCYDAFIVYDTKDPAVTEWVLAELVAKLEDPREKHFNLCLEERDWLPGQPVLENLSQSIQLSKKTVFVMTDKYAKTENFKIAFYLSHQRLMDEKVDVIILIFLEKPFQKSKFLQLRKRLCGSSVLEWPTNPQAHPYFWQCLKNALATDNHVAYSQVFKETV
Method: as §1, §2

human TLR9 = target: T3, human TLR9 (Homo sapiens, UniProt Q9NR96); experiment: TLR9 inhibition reporter assay (HEK-Blue cells, SEAP reporter, ODN2006 stimulation); conditions: HEK-Blue cells overexpressing human TLR9, SEAP reporter, ODN2006 5 nM
T3 construct: host or cells: HEK-Blue cells
T3 sequence (Q9NR96 26-1032): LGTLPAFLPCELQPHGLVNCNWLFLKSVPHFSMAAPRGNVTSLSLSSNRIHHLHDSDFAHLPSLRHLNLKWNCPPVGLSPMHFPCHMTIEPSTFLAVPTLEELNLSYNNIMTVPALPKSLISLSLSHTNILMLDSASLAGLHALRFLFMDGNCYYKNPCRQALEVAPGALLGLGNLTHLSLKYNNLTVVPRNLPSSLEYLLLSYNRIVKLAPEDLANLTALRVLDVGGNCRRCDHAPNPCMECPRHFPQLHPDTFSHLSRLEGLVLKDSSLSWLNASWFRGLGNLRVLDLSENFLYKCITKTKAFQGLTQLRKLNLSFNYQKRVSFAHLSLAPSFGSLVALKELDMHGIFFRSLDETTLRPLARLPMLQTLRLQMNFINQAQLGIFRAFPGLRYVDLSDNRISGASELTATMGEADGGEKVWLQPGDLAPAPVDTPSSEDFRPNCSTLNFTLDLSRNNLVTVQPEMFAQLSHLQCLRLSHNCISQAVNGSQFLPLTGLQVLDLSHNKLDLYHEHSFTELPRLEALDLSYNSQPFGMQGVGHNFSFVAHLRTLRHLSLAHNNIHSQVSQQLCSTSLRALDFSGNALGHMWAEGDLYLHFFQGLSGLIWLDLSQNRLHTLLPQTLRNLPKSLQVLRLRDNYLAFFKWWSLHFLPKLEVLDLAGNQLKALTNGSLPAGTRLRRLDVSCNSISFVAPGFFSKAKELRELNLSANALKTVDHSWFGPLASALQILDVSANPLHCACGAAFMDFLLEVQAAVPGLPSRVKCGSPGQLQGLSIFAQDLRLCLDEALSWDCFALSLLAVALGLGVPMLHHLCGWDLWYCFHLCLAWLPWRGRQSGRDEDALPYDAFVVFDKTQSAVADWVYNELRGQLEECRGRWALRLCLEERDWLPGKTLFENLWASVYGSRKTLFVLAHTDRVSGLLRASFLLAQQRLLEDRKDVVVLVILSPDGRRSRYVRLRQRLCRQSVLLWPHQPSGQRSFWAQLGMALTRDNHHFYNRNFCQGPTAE
Method: as §1, §2

Structure (SMILES)	IC50 (human TLR8) [nM]	IC50 (human TLR7) [nM]	IC50 (human TLR9) [nM]
CCN(C)C1CCC(c2ccc3[nH]c(-c4cc(OC)c5ncnn5c4)c(C(C)C)c3c2)CC1 (single isomer, unassigned) [Example 66]	4.4	0.85	1170
COc1cc(-c2[nH]c3ccc(C4CCC(NCC(F)F)CC4)cc3c2C(C)C)cn2ncnc12 (single isomer, unassigned) [Example 67]	1.3	0.17	5760
COc1cc(-c2[nH]c3ccc(C4CCC(NCC(F)F)CC4)cc3c2C(C)C)cn2ncnc12 (single isomer, unassigned) [Example 68]	6.8	0.85	11600
COCCN(C)C1CCC(c2ccc3[nH]c(-c4cc(OC)c5ncnn5c4)c(C(C)C)c3c2)CC1 (single isomer, unassigned) [Example 72]	1.2	0.3	1280
COCCN(C)C1CCC(c2ccc3[nH]c(-c4cc(OC)c5ncnn5c4)c(C(C)C)c3c2)CC1 (single isomer, unassigned) [Example 79]	5.7	2	2580
Cc1c(-c2[nH]c3ccc(C4CCC(NC5COC5)CC4)cc3c2C(C)C)cn2ncnc2c1C (single isomer, unassigned) [Example 85]	0.53	0.35	2880
Cc1c(-c2[nH]c3ccc(C4CCC(NC5COC5)CC4)cc3c2C(C)C)cn2ncnc2c1C (single isomer, unassigned) [Example 86]	2.6	2	5220
Cc1c(-c2[nH]c3ccc(C4CCC(N5CCOCC5)CC4)cc3c2C(C)C)cn2ncnc2c1C (single isomer, unassigned) [Example 92]	0.33	0.39	2680
Cc1c(-c2[nH]c3ccc(C4CCC(N5CCOCC5)CC4)cc3c2C(C)C)cn2ncnc2c1C (single isomer, unassigned) [Example 93]	3.8	3	3800
COc1cc(-c2[nH]c3ccc(C4CCC(NCC(F)(F)F)CC4)cc3c2C(C)C)cn2ncnc12 (single isomer, unassigned) [Example 108]	38	7	19800
COc1cc(-c2[nH]c3ccc(C4CCC(NCC(F)(F)F)CC4)cc3c2C(C)C)cn2ncnc12 (single isomer, unassigned) [Example 110]	396	24	37000
Cc1cc(-c2[nH]c3ccc(C4CCC(N(C)C)CC4)cc3c2C(C)C)cc(C)n1 (single isomer, unassigned) [Example 114]	20	4	515

Further lines, results first:

IC50 (human TLR8) [nM]	IC50 (human TLR7) [nM]	IC50 (human TLR9) [nM]	Structure (SMILES)
13	1	16100	COc1cc(-c2[nH]c3ccc(C4CCC(NC(C)=O)CC4)cc3c2C(C)C)cn2ncnc12 (single isomer, unassigned) [Example 115, N-(4-(3-isopropyl-2-(8-methoxy-[1,2,4]triazolo[1,5-a]pyridin-6-yl)-1H-indol-5-yl)cyclohexyl)acetamide]
61	9	> 50000	COc1cc(-c2[nH]c3ccc(C4CCC(NC(C)=O)CC4)cc3c2C(C)C)cn2ncnc12 (single isomer, unassigned) [Example 116, N-(4-(3-isopropyl-2-(8-methoxy-[1,2,4]triazolo[1,5-a]pyridin-6-yl)-1H-indol-5-yl)cyclohexyl)acetamide]
3.9	0.3	544	CNCC(=O)NC1CCC(c2ccc3[nH]c(-c4cc(C)nc(C)c4)c(C(C)C)c3c2)CC1 (single isomer, unassigned) [Example 129]
33	5	236	CNCC(=O)NC1CCC(c2ccc3[nH]c(-c4cc(C)nc(C)c4)c(C(C)C)c3c2)CC1 (single isomer, unassigned) [Example 130]
0.73	0.22	569	CNC1CCC(c2ccc3[nH]c(-c4cc(OC)c5ncnn5c4)c(C(C)C)c3c2)CC1 (single isomer, unassigned) [Example 145, 4-(3-isopropyl-2-(8-methoxy-[1,2,4]triazolo[1,5-a]pyridin-6-yl)-1H-indol-5-yl)-N-methylcyclohexanamine]
